Reference: patent US20140221301A1, “COMBINATION TREATMENT FOR CANCER” (priority 2011, published 2014)

How the values were obtained:
Format in all cases: cell-based, human
[1] = tested on: Complexes I and IV; experiment: Respiratory chain enzyme activity relative to citrate synthase, Complexes I and IV; conditions: TEX cells, 2.5 μM and 5 μM, 72 hours
Description: FIG. 4. Tigecycline decreases mitochondrial Cox-1 protein levels in TEX cells. (A) Cells from TEX, OCI-AML2 and two primary AML patients were treated with increasing concentrations (2.5 μM and 5 μM) of tigecycline for 36 and 48 hours of tigecycline. Total proteins were extracted and analyzed by western blotting for Cox-1, Cox-2, Cox-4, grp78, XIAP, actin and tubulin. (B) TEX and AML patient cells were treated with increasing concentrations (2.5 μM and 5 μM) of tigecycline. Cox-1, Cox-2, and Cox-4 mRNA expression relative 18S was determined by quantitative RT-PCR. Data is shown as mean±SD. (C) TEX cells were treated with increasing concentrations of tigecycline and chloramphenicol (CAP) for 72 hours. Complex I, II and IV enzyme activity relative to citrate synthase activity was determined as described in materials and methods. […] Mitochondrial membrane potential (ΔΨ) was determined by staining cells with JC-1 dye, and flow cytometry analysis (Red/Green ratio). Reactive oxygen species generation (ROS) was determined by staining with h2-DCFDA and Dihydroethidium (DHE).
The effect of tigecycline treatment on enzyme activity of the respiratory chain complexes relative to the mitochondrial non-respiratory chain enzyme citrate synthase was examined. TEX leukemia cells were treated with tigecycline for […] and then respiratory chain enzyme relative to citrate synthase activity was analyzed. […]

[2] = tested on: TEX cells; experiment: Apoptosis by Annexin V flow cytometry in TEX cells; conditions: over time
Description: FIG. 1. […] (A) TEX and (B) M9-ENL1 cells were plated in 96-well plates and drugs were added to the wells (5 μL per well) for final concentrations of 10 μM (shown) and 1 μM. Cell growth and viability was measured at 48 hours (M9-ENL-1) and 72 hours (TEX) by MTS assay. Cell viability is shown for each compound as a percent of cells treated with DMSO alone. (C) Leukemia, (D) myeloma, and (E) solid tumor cell lines were seeded in 96-well plates and then treated with increasing concentrations of tigecycline. Cell growth and viability was measured at 72 hours by MTS assay. Cell viability is expressed as mean percentage plus or minus SD (n=3) relative to vehicle-treated cells. […] Cell viability was measured at 72 hours by MTS assay. Cell viability is expressed as mean percentage plus or minus SD (n=3) relative to vehicle-treated cells.
Cell growth and viability was assessed by the MTS assay (Promega, Madison, Wis.) according to the manufacturer's instructions. Apoptosis and cell death was measured by Annexin V-fluroscein isothiocyanate (FITC; Biovision Research Products, Mountain View, Calif.), propidium iodide staining and flow cytometry according to the manufacturer's instructions and as previously described^30.

[3] = tested on: primary AML patient samples; experiment: Methylcellulose colony formation assay, primary AML cells; conditions: 5 μM, primary AML patient samples n=7, 7 days
Description: FIG. 2. Tigecycline induces cell death and inhibits clonogenic growth in primary AML cells preferential over normal hematopoietic cells. Mononuclear cells from peripheral blood of leukemia patients (blast count>80%) and normal G-CSF expanded donors was treated with increasing concentrations of tigecycline for 48 hours. Cell viability was measured by Annexin-PI flow cytometry staining. Cell viability is expressed as a mean percentage plus or minus SD (n=3) relative to DMSO-treated cells. Mononuclear cells from primary AML patient samples (A, B) and normal peripheral blood cells (C) were plated in methylcelluose with 5 μM of Tigecycline. (D) Colony forming units were counted at 7 days (AML) and 14 days (Normal) post plating. […]
To assess clonogenic growth, primary AML cells (1.0×10^5/mL) or granulocyte colony-stimulating factor (G-CSF) mobilized PBSCs (1.0×10^5/mL) were plated in duplicate with increasing concentrations of tigecycline in MethoCult GF H4434 medium (StemCell Technologies, Vancouver, BC) containing 1% methycellulose in IMDM, 30% FCS, 1% bovine serum albumin, 3 U/mL of recombinant human erythropoietin, 10^−4 M of 2-mercaptoethanol, 2 mM of L-glutamine, 50 ng/mL of recombinant human stem cell factor, 10 ng/mL of GM-CSF, and 10 ng/mL of rh IL-3). Seven days (AML samples) or 14 days (normal PBCS) after plating, the number of colonies was counted as previously described^31.

[4] = tested on: Cox-1, Cox-2 (mitochondrially-translated subunits I and II) over Cox-4; experiment: Immunoblotting of cytochrome C oxidase subunits in leukemia cells; conditions: TEX, OCI-AML2, two AML patients; 2.5 μM and 5 μM, 36 and 48 hours
Description: FIG. 4. […] (A) Cells from TEX, OCI-AML2 and two primary AML patients were treated with increasing concentrations (2.5 μM and 5 μM) of tigecycline for 36 and 48 hours of tigecycline. Total proteins were extracted and analyzed by western blotting for Cox-1, Cox-2, Cox-4, grp78, XIAP, actin and tubulin. (B) TEX and AML patient cells were treated with increasing concentrations (2.5 μM and 5 μM) of tigecycline. Cox-1, Cox-2, and Cox-4 mRNA expression relative 18S was determined by quantitative RT-PCR. Data is shown as mean±SD. (C) TEX cells were treated with increasing concentrations of tigecycline and chloramphenicol (CAP) for 72 hours. Complex I, II and IV enzyme activity relative to citrate synthase activity was determined as described in materials and methods. (D) Cells from TEX, primary AML patients, and normal donors were treated with increasing concentrations of tigecycline. Mitochondrial membrane potential (ΔΨ) was determined by staining cells with JC-1 dye, and flow cytometry analysis (Red/Green ratio). Reactive oxygen species generation (ROS) was determined by staining with h2-DCFDA and Dihydroethidium (DHE).
Total cell lysates were prepared from cells as described previously^32. […] Protein concentrations were measured by the DC Protein assay. […]

CN(C)c1cc(NC(=O)CNC(C)(C)C)c(O)c2c1C[C@H]1C[C@H]3[C@H](N(C)C)C(O)=C(C(N)=O)C(=O)[C@@]3(O)C(O)=C1C2=O [tigecycline]
enzyme activities of Complexes I and IV relative to citrate synthase [1]: decreased | apoptosis, percentage of cells labeled by Annexin V [2]: time-dependent increases in apoptosis | reduction of clonogenic growth [3]: 93±4% | protein level of mitochondrially-translated subunits I and II over nuclear-translated subunit IV [4]: preferential decrease
